Results on 1 substance are retold here after US20170348277A1, “CANNABINOID FORMULATION INCLUDING A V[…] OCULAR DELIVERY OF THE SAME” (priority 2017, published 2017).

Data set [1] is described as follows: Vasodilators studied for increasing the rate of delivery of cannabinoids to a desired site of action. Particulars: vasodilator in cannabinoid formulation. The source says:
Various vasodilators have been studied that have the desired effect of increasing the rate of delivery of cannabinoids to a desired site of action. […] The classes of vasodilators that may be substituted for the MSM of the present invention either in a preferred combination or in isolation. These classes include: • Alpha-adrenoceptor antagonists (alpha-blockers) • Angiotensin converting enzyme (ACE) inhibitors • Angiotensin receptor blockers (ARBs) • Beta2-adrenoceptor agonists (β2-agonists) • Calcium-channel blockers (CCBs) • Centrally acting sympatholytics • Direct acting vasodilators • Endothelin receptor antagonists • Ganglionic blockers • Nitrodilators • Phosphodiesterase inhibitors • Potassium-channel openers • Renin inhibitors

The conditions of data set [2]: oral; cited from earlier work.

Turning to methylsulfonylmethane [MSM], the “increasing the rate of delivery of cannabinoids to a desired site of action” value in data set [1] is on record as “sufficiently effective”. In addition, the “safe dose when taken orally” value in data set [2] was “up to 2 gm/kg of body weight per day”.
